Measurements: US20250073302A1, “CYCLIC PEPTIDES AS PROTEASOME STIMULATORS” (Purdue Research Foundation, priority 2023, published 2025)
Where “and” joins values, the source holds several entries; their conditions need not be identical. Equal values may be shown once. Non-standard residues stand in square brackets, D forms with d. Residues, ends and D or L forms follow the SMILES beside them. aThr = C[C@H](O)[C@H](N)C(=O)O; dPra = C#CC[C@@H](N)C(=O)O; dDap = NC[C@@H](N)C(=O)O

What was measured:
proteasome [1] = settings: background statement; cited from earlier work
20S CP [2] = test system: T1, 20S CP; assay: TAS-1 biochemical assay (20S CP stimulation); parameters: key to Emax: % of DMSO control rate (percent stimulation); key to TAS-1: % of DMSO control rate of TAS-1 hydrolysis; settings: for EC50: dose-response curve; for EC50 / Emax: 20S CP stimulation; for Emax: maximal response of dose-response curve, in %; for TAS-1: percent stimulation of 20S CP, rate of TAS-1 hydrolysis normalized against DMSO, compounds tested at 10 μM, 5 nM 20S CP
T1 construct: purchased South Bay
Experimental: Each compound was initially tested at 10 μM. Each well contained […] of 11.4 μM TAS-1 solution in Tris HCl (50 mM, pH 7.4) along with 5 nM of 20 sCP (South Bay). 1 μL of the test compound, control, or DMSO was added to the desired well to obtain a final DMSO concentration of 2%, with the total volume being 50 μL. Compounds were tested in three replicates that each had technical triplicates. The fluorescence was recorded using a SynergyNeo 2, where the excitation and emission was set to 335 nm and 493 nm. The plate reader was heated to 37° C. The fluorescence was recorded every 90 seconds over a 1-hour period. A simple linear regression was performed on the data plotted against time to obtain the rate of hydrolysis of TAS-1 by the 20S CP. The data was then normalized against DMSO to get the percent stimulation.

[3] = test system: T2, cytosolic proteasome in HEK293 T cells; assay: Flow cytometry assay of proteasome stimulation in cellulo (epoxomicin probe); assay type: cell-based; settings: for In-Cellulo: 10 μM stimulator, 2.5 μM epoxomicin probe, 1 hour, flow cytometry (FITC); for cellular stimulation of the proteasome (in words): 10 μM, flow cytometry
T2 construct: endogenous in cells; host or cells: HEK 293T
From the text: Flow cytometry allows for the study of proteasomal activity in physiologically relevant conditions and presents a high-throughput alternative to traditional gel electrophoresis and western blotting techniques. To test the assay, the covalent fluorescent-based probe was applied in HEK293 T cells to quantify proteasome stimulation of CyPPSs alone and in the presence of the known proteasome stimulator miconazole and the known proteasome inhibitor MG132. The covalent fluorescent-based probe utilized an epoxy-ketone warhead that interacts with the β5 subunit of the proteasome, forming a covalent attachment and fluorescently tagging the proteasome. The addition of the CyPPSs induces a significant shift in the intracellular fluorescence (FIG. 6). This shift validated that CyPPSs can stimulate cytosolic proteasome in cellulo. […] However, their activity was lower than what would be expected based on their in vitro activity. This may be due to incomplete cellular uptake or escape from the endosomes. […] This is likely due to a combination of effects, including the inability to stimulate the proteasome (FIGS. 2A and 2B) as well as the generally poor cell permeability and stability of linear peptides.
Confluent HEK 293T cells were seeded into sterilized 2 mL Fisherbrand Eppendorf tubes in FBS free Dulbecco's Modified Eagle Medium (DMEM) at a concentration of 300,000 cells per tube. The cells were centrifuged at 1000 g for 5 minutes. The supernatant was removed, and the cells were resuspended in 500 μL of a 10 μM stimulator solution in FBS free DMEM. Cells were spun down at 1000 g for 5 minutes, and the supernatant was again removed. Cells were then resuspended in 500 μL of a 10 μM stimulator 2.5 μM epoxomicin probe in FBS-free DMEM and incubated for 1 hour at 37° C. Cells were again centrifuged at 1000 g for 5 minutes. Supernatant was then removed, and cells were washed once with cold PBS. Cells were then resuspended in 50 μL of cold PBS and placed on ice. Cellular fluorescence was measured by collecting 50,000 events using the FITC channel of a BD Accuri C6 Flow Cytometer and analyzed using FlowJo.

human red blood cells = assay: Hemolysis assay; assay type: cell-based; settings: percent hemolysis, 1 hour at 37° C., table title 15 uM, method 20 μM, in %
Experimental: Whole human blood was purchased at BiolVT and used prior to its expiration. 100 μL blood was added to a 1.5 mL Eppendorf tub with 500 μL of sterile 0.9% NaCl. The tube was inverted multiple times to mix the solution. This mixture was centrifuged at 500 g for 7 minutes. The supernatant was extracted utilizing a pipette. The pellet was washed 2 more times. After the final wash, 800 μL of Red Blood Cell (RBC) buffer was added to the pellet to resuspend the red blood cells. 4 μL of the compounds (20 μM in DMSO, final concentration), 76 μL RBC buffer, and 40 μL resuspended red blood cells were added to a 96 U-well plate (VWR) and incubated for 1 hour at 37° C. The plate was spun at 500 g for 5 minutes. […] of the supernatant was transferred to a 96 flat-well plate. The absorbance was read at 540 nm utilizing a SpectraMax iD3 platereader. Percent hemolysis was measured from the average absorbance of the positive and negative controls. A minimum of 3 biological triplicates were performed.

20S CP [4] = test system: T1, 20S CP; assay: Purified protein degradation assay; assay type: biochemical; settings: 10 uM CyPPS, 5 nM 20S CP, 200 ng purified protein, 1 hour at 37° C.; for proteasomal degradation of α-synuclein: highly disordered protein; for proteasomal degradation of GAPDH / proteasomal degradation of lysozyme: low disordered protein
Experimental: Proteins were diluted to 50 ng/μL in Tris HCl (50 mM, pH 7.6). The CyPPS were diluted to 30 μM in Tris HCl, with 6% DMSO. The 20S CP (South Bay) was diluted to 15 nM with Tris HCl. Each protein was performed with a latent level, basal level, and CyPPS in triplicate. The latent level was prepared with 4 μL protein and 8 μL of 3% DMSO in Tris HCl. The basal level contained 4 μL protein, 4 μL 20S CP, and 4 μL 6% DMSO in Tris HCl. The CyPPS was performed with 4 μL protein, 4 μL 20S CP, and 4 μL 30 μM CyPPS. The samples were incubated for 1 hour at 37° C. 4 μL of 4×SDS gel loading buffer was added and heated for 5 minutes at 95° C. The samples were run on a 15-well gradient gel for SDS-PAGE, stained with Coomassie, imaged with an imaging system, and quantified with ImageJ. Analysis was done via GraphPad PRISM9.

proteasome [5] = settings: background statement; cited from earlier work; remark: listed apart in the source

SMILES	20S CP stimulatory activity (in words, SAR compared to CyPPS1) (20S CP [2]; TAS-1 assay)	EC50 (20S CP [2])	Emax (20S CP [2])	TAS-1 (20S CP [2])	In-Cellulo [3]	proteasomal degradation of α-synuclein (20S CP [4])	proteasomal degradation of GAPDH (20S CP [4])	proteasomal degradation of lysozyme (20S CP [4])	percent stimulation of the proteasome in the SNaPP library screen (20S CP [2]; library of 45 cyclic peptides, TAS-1 assay)	potency as proteasome stimulator (in words) (proteasome [1])	cellular stimulation of the proteasome (in words) [3]	Hemolysis (human red blood cells)	activity in cell-based assays (in words) (proteasome [5])
CCCCC/C=C\C/C=C\C/C=C\C/C=C\CCCC(=O)Nc1ccc(O)cc1 [AM-404]										lack of potency			
Clc1ccc(COC(Cn2ccnc2)c2ccc(Cl)cc2Cl)c(Cl)c1 (centres unmarked) [miconazole]										lack of potency			
CN(C)CCCN1c2ccccc2Sc2ccc(Cl)cc21 [chloropromazine]													inactivity in cell-based assays
C[C@H]1[C@H](C)CC[C@]2(C(=O)O)CC[C@]3(C)C(=CC[C@@H]4[C@@]5(C)CC[C@H](O)C(C)(C)[C@@H]5CC[C@]43C)[C@H]12 [ursolic acid]										lack of potency			
CC(C)c1ccc2c(c1)c(SC(C)(C)C)c(CC(C)(C)C(=O)O)n2Cc1ccc(Cl)cc1 [MK-866]													inactivity in cell-based assays

Further lines, with some results ahead:

20S CP stimulatory activity (in words, SAR compared to CyPPS1) (20S CP [2]; TAS-1 assay)	EC50 (20S CP [2])	Emax (20S CP [2])	TAS-1 (20S CP [2])	In-Cellulo [3]	proteasomal degradation of α-synuclein (20S CP [4])	proteasomal degradation of GAPDH (20S CP [4])	proteasomal degradation of lysozyme (20S CP [4])	percent stimulation of the proteasome in the SNaPP library screen (20S CP [2]; library of 45 cyclic peptides, TAS-1 assay)	SMILES	potency as proteasome stimulator (in words) (proteasome [1])	cellular stimulation of the proteasome (in words) [3]	Hemolysis (human red blood cells)	activity in cell-based assays (in words) (proteasome [5])
maintained stimulatory activity	4 µM and 4.1 µM	391 and 390.9	352.4 ± 39.1	247.3 ± 15.4	greatly enhanced	little-to-no effect	little-to-no effect		CC(C)C[C@H]1NC(=O)[C@H]([C@@H](C)O)NC(=O)[C@@H](CN)NC(=O)[C@H](CCCNC(=N)N)NC(=O)[C@@H](Cc2ccccc2)NC(=O)[C@H](Cc2ccccc2)NC1=O [CyPPS23, TLFFRX [SEQ ID NO: 23]] (cyclo(T[dL]F[dF]R[dDap]))		significant cellular stimulation of the proteasome	20 ± 4	
maintained stimulatory activity	14.2 µM	701.4	372.2 ± 12.1	161.0 ± 31.7					CC(C)C[C@H]1NC(=O)[C@H](CC(=O)O)NC(=O)[C@@H](C)NC(=O)[C@H](CCCNC(=N)N)NC(=O)[C@@H](Cc2ccccc2)NC(=O)[C@H](Cc2ccccc2)NC1=O [CyPPS8, DLFFRA [SEQ ID NO: 8]] (cyclo(D[dL]F[dF]R[dA]))			0 ± 0	
retained activity	4.1 µM and 4 µM	393 and 393.8	422.4 ± 18.5	173.7 ± 13.0					CC(C)[C@H]1NC(=O)[C@H]([C@@H](C)O)NC(=O)[C@@H](C)NC(=O)[C@H](CCCNC(=N)N)NC(=O)[C@@H](Cc2ccccc2)NC(=O)[C@H](Cc2ccccc2)NC1=O [CyPPS13, TVFFRA [SEQ ID NO: 13]] (cyclo(T[dV]F[dF]R[dA]))			5 ± 2	
retained stimulatory activity	12.1 µM	513.6	387.9 ± 2.7	231.4 ± 31.7	greatly enhanced	little-to-no effect	little-to-no effect		C#CC[C@H]1NC(=O)[C@H]([C@@H](C)O)NC(=O)[C@@H](C)NC(=O)[C@H](CCCNC(=N)N)NC(=O)[C@@H](Cc2ccccc2)NC(=O)[C@H](Cc2ccccc2)NC1=O [CyPPS14, TXFFRA [SEQ ID NO: 14]] (cyclo(T[dPra]F[dF]R[dA]))		significant cellular stimulation of the proteasome	2 ± 1	
	6.4 µM	282.9	339.5 ± 15.7	235.1 ± 5.5	greatly enhanced	little-to-no effect	little-to-no effect	highest percent stimulation	CC(C)C[C@H]1NC(=O)[C@H]([C@H](C)O)NC(=O)[C@@H](C)NC(=O)[C@H](CCCNC(=N)N)NC(=O)[C@@H](Cc2ccccc2)NC(=O)[C@H](Cc2ccccc2)NC1=O [CyPPS1, TLFFRA [SEQ ID NO: 1]] (cyclo(F[dF]R[dA][aThr][dL]))		significant cellular stimulation of the proteasome	13 ± 1	
